Here are results for 49 molecules from US10144746B2 (GLOBAL BLOOD THERAPEUTICS, INC., priority 2015, dated 2018).

This assay deals with Human plasma kallikrein (Homo sapiens (Human), UniProt P03952). The assay is described as follows: In vitro plasma kallikrein inhibition assay (chromogenic substrate D-Pro-Phe-Arg-pNa, absorbance at 405 nm, IC50 determination). The assay is classed as biochemical. The settings on record: read-out: KLKB1 pIC50 (converted).
Sequence of Human plasma kallikrein (P03952 391-638): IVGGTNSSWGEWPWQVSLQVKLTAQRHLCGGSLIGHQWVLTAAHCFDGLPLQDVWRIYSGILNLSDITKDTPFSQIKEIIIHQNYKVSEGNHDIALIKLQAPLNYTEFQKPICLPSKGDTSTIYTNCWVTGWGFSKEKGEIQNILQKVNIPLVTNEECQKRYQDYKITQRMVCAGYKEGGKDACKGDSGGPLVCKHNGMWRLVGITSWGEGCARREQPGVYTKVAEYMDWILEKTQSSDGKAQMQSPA
Sequence of Human plasma kallikrein (P03952 20-390 partner): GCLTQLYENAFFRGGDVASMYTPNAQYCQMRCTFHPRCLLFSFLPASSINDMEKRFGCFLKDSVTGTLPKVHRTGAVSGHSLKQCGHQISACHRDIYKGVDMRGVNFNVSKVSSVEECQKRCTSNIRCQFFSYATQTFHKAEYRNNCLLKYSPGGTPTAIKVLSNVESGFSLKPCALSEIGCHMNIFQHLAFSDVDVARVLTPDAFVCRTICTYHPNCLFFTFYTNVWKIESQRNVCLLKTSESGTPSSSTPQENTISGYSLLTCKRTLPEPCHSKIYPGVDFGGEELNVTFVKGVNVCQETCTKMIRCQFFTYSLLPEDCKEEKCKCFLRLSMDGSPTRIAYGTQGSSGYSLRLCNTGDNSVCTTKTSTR
As to `N=C(N)c1ccc(CNC(=O)c2ccc3c(c2)[C@@H]2O[C@H]3c3ccc(C4CC4)cc32)cc1` (single isomer, unassigned) [Example 259], the IC50 is 2 nM.

Turning to `Cc1cc(N)nc(C)c1CNC(=O)c1ccc2c(c1)[C@@H]1O[C@H]2c2ccc(N(c3cccc(F)c3)S(C)(=O)=O)cc21` (single isomer, unassigned) [Example 260], the IC50 was 186 nM.

`Cc1cc(N)nc(C)c1CNC(=O)c1ccc2c(c1)[C@@H]1O[C@H]2c2ccc(N(C)c3cccc(Cl)c3)cc21` (single isomer, unassigned) [Example 262]: the IC50 was 8.91 nM.

Turning to `COc1ccc(Cl)c(CNC(=N)c2ccc3c(c2)[C@@H]2O[C@H]3c3ccc(-c4ccc(F)cc4F)cc32)c1F` (single isomer, unassigned) [Example 264], the IC50 was 2400 nM.

Regarding `Cc1nc(N)cc(C(C)C)c1CNC(=O)c1ccc2c(c1)[C@@H]1O[C@H]2c2ccc(-c3cc[n+]([O-])cc3F)cc21` (single isomer, unassigned) [Example 265], the IC50 is 91.2 nM.

Consider `Cc1nc(N)cc(C2=CCOC2)c1CNC(=O)c1ccc2c(c1)[C@@H]1O[C@H]2c2ccc(-c3ccc(F)cc3F)cc21` (single isomer, unassigned) [Example 267], for which the IC50 was 97.7 nM.

Take `N=C(N)c1ccc(CNC(=O)c2ccc3c(c2)[C@@H]2O[C@H]3c3ccc(-c4ccc(F)cc4F)cc32)cn1` (single isomer, unassigned) [Example 268]: the IC50 is 5.01 nM.

For the molecule `CCOC(=O)N=C(N)c1cc(F)c(CNC(=O)c2ccc3c(c2)[C@@H]2O[C@H]3c3ccc(-c4ccc(F)cc4F)cc32)c(F)c1` (single isomer, unassigned) [Example 269], the IC50 was 1230 nM.

For the molecule `O=C(NCc1ccc(-c2noc(=O)[nH]2)cc1)c1ccc2c(c1)[C@@H]1O[C@H]2c2ccc(-c3ccc(F)cc3F)cc21` (single isomer, unassigned) [Example 270], the IC50 was 100000 nM.

As for `CCOC(=O)N=C(N)c1ccc(CNC(=O)c2ccc3c(c2)[C@@H]2O[C@H]3c3ccc(-c4ccc(F)cc4F)cc32)cc1` (single isomer, unassigned) [Example 273], the IC50 was 6030 nM.

As to `N=C(N)c1cc(F)c(CNC(=O)c2ccc3c(c2)[C@@H]2O[C@H]3c3ccc(-c4nccs4)cc32)c(F)c1` (single isomer, unassigned) [Example 275], the IC50 is 2 nM.

As for `CC(C)(O)c1ccc2c(c1)[C@H]1O[C@@H]2c2ccc(C(=O)NCc3ccc(C(=N)N)cc3)cc21` (single isomer, unassigned) [Example 277], the IC50 was 35.5 nM.

Take `Cc1nc(N)cc(C2CC2)c1CNC(=O)c1ccc2c(c1)[C@@H]1O[C@H]2c2ccc(-c3cc[n+]([O-])cc3F)cc21` (single isomer, unassigned) [Example 278]: the IC50 was 34.7 nM.

`Cc1ccc(C(=O)c2ccc3c(c2)[C@H]2O[C@@H]3c3ccc(C(=O)NCc4c(C)cc(N)nc4C)cc32)o1` (single isomer, unassigned) [Example 279]: the IC50 is 22.9 nM.

Take `N=C(N)c1cc(F)c(CNC(=O)c2ccc3c(c2)[C@@H]2O[C@H]3c3ccc(C4CC4)cc32)c(F)c1` (single isomer, unassigned) [Example 280]: the IC50 was 0.759 nM.

In the case of `CC(F)(F)c1ccc2c(c1)[C@H]1O[C@@H]2c2ccc(C(=O)NCc3ccc(C(=N)N)cc3)cc21` (single isomer, unassigned) [Example 281], the IC50 was 10 nM.

With `N#Cc1cc(NC(=N)c2ccc3c(c2)[C@@H]2O[C@H]3c3ccc(-c4ccc(F)cc4F)cc32)ccc1F` (single isomer, unassigned) [Example 283], the IC50 is 100000 nM.

On to `CC(C)(F)c1ccc2c(c1)[C@H]1O[C@@H]2c2ccc(C(=O)NCc3ccc(C(=N)N)cc3)cc21` (single isomer, unassigned) [Example 284], for which the IC50 is 6.31 nM.

Consider `C=C(C)c1ccc2c(c1)[C@H]1O[C@@H]2c2ccc(C(=O)NCc3c(F)cc(C(=N)N)cc3F)cc21` (single isomer, unassigned) [Example 285], for which the IC50 is 1 nM.

In the case of `N=C(N)c1cc(F)c(CNC(=O)c2ccc3c(c2)[C@@H]2O[C@H]3c3ccc(-n4cccn4)cc32)c(F)c1` (single isomer, unassigned) [Example 286], the IC50 was 2.45 nM.

Consider `Cc1nc(N)cc(C(C)C)c1CNC(=O)c1ccc2c(c1)[C@@H]1O[C@H]2c2ccc(-c3c(F)ccc[n+]3[O-])cc21` (single isomer, unassigned) [Example 289], for which the IC50 was 123 nM.

For `N=C(N)c1ccc(CNC(=O)c2ccc3c(c2)[C@@H]2O[C@H]3c3ccc(-c4ccccc4F)cc32)c(F)c1` (single isomer, unassigned) [Example 290], the IC50 was 1 nM.

Take `NC(=O)c1cccc(CNC(=O)c2ccc3c(c2)[C@@H]2O[C@H]3c3ccc(-c4ccc(F)cc4F)cc32)c1` (single isomer, unassigned) [Example 292]: the IC50 is 100000 nM.

`Nc1nccc2c(CNC(=O)c3ccc4c(c3)[C@@H]3O[C@H]4c4ccc(-c5ccccc5F)cc43)c(Cl)ccc12` (single isomer, unassigned) [Example 294]: the IC50 was 20.9 nM.

Turning to `Nc1nccc2cc(Cl)c(CNC(=O)c3ccc4c(c3)[C@@H]3O[C@H]4c4ccc(-c5ccccc5F)cc43)cc12` (single isomer, unassigned) [Example 295], the IC50 was 10000 nM.

With `N=C(N)c1cc(F)c(CNC(=O)c2ccc3c(c2)[C@@H]2O[C@H]3c3ccc(CCC(F)(F)F)cc32)c(F)c1` (single isomer, unassigned) [Example 296], the IC50 was 1 nM.

Take `CC(C)c1ccc2c(c1)[C@H]1O[C@@H]2c2ccc(C(=O)NCc3c(F)cc(C(=N)N)cc3F)cc21` (single isomer, unassigned) [Example 298]: the IC50 was 2 nM.

As for `Cc1ccc2c(N)nccc2c1CNC(=O)c1ccc2c(c1)[C@@H]1O[C@H]2c2ccc(-c3ccccc3F)cc21` (single isomer, unassigned) [Example 299], the IC50 was 30.9 nM.

For the molecule `N=C(N)c1ccc(CNC(=O)c2ccc3c(c2)[C@@H]2O[C@H]3c3ccc(C4CC4)cc32)c(F)c1` (single isomer, unassigned) [Example 302], the IC50 is 1 nM.

As for `N=C(N)c1ccc(CNC(=O)c2ccc3c(c2)[C@@H]2O[C@H]3c3ccc(-n4cccn4)cc32)cc1` (single isomer, unassigned) [Example 305], the IC50 is 8.91 nM.

Turning to `Cc1cc(C(=N)N)ccc1CNC(=O)c1ccc2c(c1)[C@@H]1O[C@H]2c2ccc(-c3ccc(F)cc3F)cc21` (single isomer, unassigned) [Example 306], the IC50 is 1 nM.

For `N=C(N)c1ccc(CNC(=O)c2ccc3c(c2)[C@@H]2O[C@H]3c3ccc(N4CC(F)(F)C4)cc32)cc1` (single isomer, unassigned) [Example 307], the IC50 is 1 nM.

With `Cc1cc(C(=N)N)ccc1CNC(=O)c1ccc2c(c1)[C@@H]1O[C@H]2c2ccc(-n3cccn3)cc21` (single isomer, unassigned) [Example 312], the IC50 is 1 nM.

As for `O=C(NCC1CNC1)c1ccc2c(c1)[C@@H]1O[C@H]2c2ccc(-c3ccc(F)cc3F)cc21` (single isomer, unassigned) [Example 323], the IC50 is 100000 nM.

Take `O=C(N[C@@H]1CCNC1)c1ccc2c(c1)[C@@H]1O[C@H]2c2ccc(-c3ccc(F)cc3F)cc21` (single isomer, unassigned) [Example 324]: the IC50 was 100000 nM.

As for `O=C(N[C@H]1CCNC1)c1ccc2c(c1)[C@@H]1O[C@H]2c2ccc(-c3ccc(F)cc3F)cc21` (single isomer, unassigned) [Example 325], the IC50 is 42700 nM.

For `N=C(N)c1ccc(CNC(=O)c2ccc3c(c2)[C@@H]2O[C@H]3c3ccc(C4CC4)cc32)nc1` (single isomer, unassigned) [Example 327], the IC50 was 427 nM.

Turning to `CC(C)c1ccc2c(c1)[C@H]1O[C@@H]2c2ccc(C(=O)NCc3ccc(C(=N)N)cc3)cc21` (single isomer, unassigned) [Example 328], the IC50 is 7.08 nM.

Turning to `N=C(N)c1ccc(CNC(=O)c2ccc3c(c2)[C@@H]2O[C@H]3c3ccc(-c4ccc(F)cc4)cc32)c(F)c1` (single isomer, unassigned) [Example 329], the IC50 was 1 nM.

As to `Cc1cc(C(=N)N)cc(C)c1CNC(=O)c1ccc2c(c1)[C@@H]1O[C@H]2c2ccc(C3CC3)cc21` (single isomer, unassigned) [Example 331], the IC50 was 1 nM.

Take `N=C(N)c1ccc(CNC(=O)c2ccc3c(c2)[C@@H]2O[C@H]3c3ccc(-c4ccc(F)cc4F)cc32)nc1` (single isomer, unassigned) [Example 332]: the IC50 is 63.1 nM.

With `N=C(N)c1cc(F)c(CNC(=O)c2ccc3c(c2)[C@@H]2O[C@H]3c3ccc(N4CCS(=O)(=O)CC4)cc32)c(F)c1` (single isomer, unassigned) [Example 336], the IC50 was 5.01 nM.

As for `N=C(N)c1ccc(CNC(=O)c2ccc3c(c2)[C@@H]2O[C@H]3c3ccc(N4CCS(=O)(=O)CC4)cc32)cc1` (single isomer, unassigned) [Example 337], the IC50 is 26.9 nM.

For the molecule `COc1cc(CNC(=O)c2ccc3c(c2)[C@@H]2O[C@H]3c3ccc(-c4ccc(F)cc4F)cc32)ccc1C(=N)N` (single isomer, unassigned) [Example 338], the IC50 was 5.89 nM.

In the case of `O=C(NC1CCCNCC1)c1ccc2c(c1)[C@@H]1O[C@H]2c2ccc(-c3ccc(F)cc3F)cc21` (single isomer, unassigned) [Example 343], the IC50 was 100000 nM.

Take `Nc1cc(NC(=O)c2ccc3c(c2)[C@@H]2O[C@H]3c3ccc(-c4ccc(F)cc4F)cc32)ccn1` (single isomer, unassigned) [Example 347]: the IC50 was 100000 nM.

Consider `CCc1cc2c(cc1CC)[C@H]1O[C@@H]2c2ccc(C(=O)NCc3ccc(C(=N)N)cc3)cc21` (single isomer, unassigned) [Example 392], for which the IC50 is 1 nM.

In the case of `N=C(N)c1ccc(CNC(=O)c2ccc3c(c2)[C@H]2O[C@@H]3c3cc(C4CC4)c(C4CC4)cc32)cc1` (single isomer, unassigned) [Example 399], the IC50 was 100 nM.

Consider `N=C(N)c1ccc(CNC(=O)c2ccc3c(c2)[C@@H]2O[C@H]3c3cc(C4CC4)c(C4CC4)cc32)cc1` (single isomer, unassigned) [Example 400], for which the IC50 is 1 nM.
